Assay results from patent US20080044358A1, “METHODS FOR LYMPH SYSTEM IMAGING” (priority 2006, published 2008).
Where two headings read alike, the source gives them in different places.

Assays:
[1] = tested on: VX2 tumor bearing rabbits, metastatic iliacal lymph nodes; test: MR imaging of lymph node metastases in VX2 tumor rabbit model after intravenous injection; assay type: in vivo, New Zealand White rabbits; conditions: for delineation / differentiation of functional and metastatic lymph node tissue: i.v., MS-325 0.05 mmol Gd/kg, Gd-DTPA 0.2 mmol Gd/kg, intraindividual comparison
Method: New Zealand White rabbits (3-4 kg, n=6) were inoculated intramuscularly into the thigh with 2 to 3 pieces (1×1 mm) of VX2 carcinoma cells to produce metastases in […] nodes. The imaging experiments were performed 3 to 6 weeks after the injection of tumor cells. […] Contrast agents: […] Imaging: Intraindividual comparison of lymphographic effects in […] nodes. day 1: Gd-DTPA (5 to 120 minutes p.i.). day 2: […] Assessment of technical success and quality of MR imaging, and detection of lymph node metastases. Histology: Microscopic examination after H/E staining; correlation with MR findings.

[2] = tested on: guinea pigs with stimulated (enlarged) popliteal lymph nodes; conditions: for ratio of signal intensity lymph node to muscle / % signal enhancement popliteal lymph node: 0.05 mmol/kg i.v. bolus; for % signal enhancement popliteal lymph node: T1-weighted MR 1.5 T
Method: Female guinea pigs (370-450 g, n=3) had their lymph nodes stimulated by egg yolk emulsion (0.1 mL) intramuscularly in the thigh and lower legs on six days. MS-325 (0.05 mmol/kg) was administered as an i.v. bolus
MR system: Head scanner (Allegra, 1.5 Tesla; Siemens AG, Erlangen, Germany), T1-weighted sequence (T1-TSE, TR/TE 666/12 ms, slice thickness 1.1 mm, acquisition time 3:49).
Imaging and analysis: The animals were imaged prior to contrast agent administration and 1, 15, 30, 60, 90, 120, and […] post injection. The percent signal intensity enhancement was calculated in the popliteal lymph nodes and in surrounding muscle. The ratio of signal intensity between the lymph node and the surrounding muscle was also determined.

[3] = 5 to 15 min after intravenous injection, 0.05 mmol Gd/kg body weight
[4] = 0 min post injection (prior to contrast agent)

SMILES: O=C([O-])CN(CCN(CC(=O)[O-])CC(=O)O)CCN(CC(=O)[O-])CC(=O)O.[Gd+3] [Gd-DTPA, reference compound]
- enhancement in the whole lymph node ([1]; after intravenous injection, 0.2 mmol Gd/kg, T1-weighted MR): only a slight and inhomogeneous enhancement
- delineation / differentiation of functional and metastatic lymph node tissue [1]: does not allow an effective differentiation

SMILES: O=C([O-])CN(CCN(CC(=O)[O-])C[C@H](COP(=O)([O-])OC1CCC(c2ccccc2)(c2ccccc2)CC1)N(CC(=O)[O-])CC(=O)[O-])CC(=O)[O-].[Gd+3].[H+].[H+].[H+] [MS-325]
- appearance of the metastases (FIGS. 1 and 2, coronal MR images) [1, 3]: remains dark
- enhancement in the functional lymph node tissue (FIGS. 1 and 2, coronal MR images) [1, 3]: bright and homogeneous enhancement
- enhancement of the metastatic tissue ([1]; after intravenous injection, 0.05 mmol Gd/kg, T1-weighted MR): only a slight enhancement
- signal increase in the functional lymph node tissue ([1]; between 5 and 30 min after intravenous injection, 0.05 mmol Gd/kg, T1-weighted MR): rapid and strong signal increase
- delineation / differentiation of functional and metastatic lymph node tissue [1]: excellent delineation of the lymph node metastases
- ratio of signal intensity lymph node to muscle [2, 4]: 1.2 ± 0.1
- % signal enhancement popliteal lymph node [2, 4]: 0 ± 0%
- ratio of signal intensity lymph node to muscle ([2]; 1 min post injection): 1.6 ± 0.1
- % signal enhancement popliteal lymph node ([2]; 1 min post injection): 87 ± 11%
- ratio of signal intensity lymph node to muscle ([2]; 15 min post injection): 1.4 ± 0.1
- % signal enhancement popliteal lymph node ([2]; 15 min post injection): 67 ± 11%
- ratio of signal intensity lymph node to muscle ([2]; 30 min post injection): 1.4 ± 0.1
- % signal enhancement popliteal lymph node ([2]; 30 min post injection): 57 ± 6%
- ratio of signal intensity lymph node to muscle ([2]; 60 min post injection): 1.3 ± 0.1
- % signal enhancement popliteal lymph node ([2]; 60 min post injection): 45 ± 6%
- ratio of signal intensity lymph node to muscle ([2]; 90 min post injection): 1.3 ± 0.1
- % signal enhancement popliteal lymph node ([2]; 90 min post injection): 37 ± 4%
- ratio of signal intensity lymph node to muscle ([2]; 120 min post injection): 1.3 ± 0.1
- % signal enhancement popliteal lymph node ([2]; 120 min post injection): 31 ± 6%
- ratio of signal intensity lymph node to muscle ([2]; 2440 min post injection): 1.1 ± 0.2
- % signal enhancement popliteal lymph node ([2]; 2440 min post injection): −8 ± 14%
- signal and contrast after 24 hours ([2]; after 24 hours, 0.05 mmol/kg): returned to baseline levels
- contrast between the lymph node and the surrounding muscle ([2]; after injection, 0.05 mmol/kg): increased
- enhancement of stimulated (enlarged) lymph nodes ([2]; after injection, 0.05 mmol/kg): positive and persistent enhancement
